Laboratory results reported in patent publication US7887835B2, “Compound comprising a fluorine-substituted alkyl group and a liposome contrast medium comprising the compound” (priority 2006, dated 2011).
Like-named read-outs stand apart in the source and are kept apart here.

Experiments:
[1] = tested on: ICR male mice; format: in vivo
Method: Six-week old ICR male mice (Charles River Japan) were purchased, and after quarantine for 1 week, acclimatized for 1 week in a clean animal cage (air-conditioning: HEPA filter of class 1000, room temperature: 20 to 24° C., humidity: 35 to 60%). Then, in order to obtain the MTD value, a suspension of the test compound was administered from the caudal vein. The suspension was administered by using physiological saline (Hikari Pharmaceutical) or a glucose solution (Otsuka Pharmaceutical) as a medium. On the basis of the MTD value obtained, the suspension was administered everyday from the caudal vein for three consecutive days in an amount corresponding to ½ of the MTD value (n=3). Symptoms were observed up to 6 hours after each administration to observe neurotoxicity, and then autopsy was performed to examine major organs.
Compound (MTD (mg/kg)): neurotoxicity (“−” indicates negative for neurotoxicity, and “+” indicate positive for neurotoxicity)

[2] = tested on: vascular smooth muscle cells; experiment: Introduced amount of the compounds to vascular smooth muscle cells (mixture culture with macrophage); format: cell-based; details: liposome PC 50 nmol + PS 50 nmol + compound, 37° C., 5% CO2, 24 hours
Method: The above liposome agent was added to a mixture culture system of vascular smooth muscle cells and macrophage, described in WO 01/082897, the disclosure of which is expressly incorporated by reference herein in its entirety. After cultivation under 37° C., 5% CO2 for 24 hours, the amount of the compounds introduced to the vascular smooth muscle cells were quantitated.

[3] = Preparation of liposome: maximum amount of compound forming liposome, particle size; format: physicochemical; details: with dipalmitoyl-PC 50 nmol + dipalmitoyl-PS 50 nmol, 0.9% physiological saline, ultrasonicated
Method: According to the method described in J. Med. Chem., 25 (12), 1500 (1982), the disclosure of which is expressly incorporated by reference herein in its entirety, dipalmitoyl-PC (Funakoshi, No. 1201-41-0225), dipalmitoyl-PS (Funakoshi, No. 1201-42-0237), and the compound of the present invention, in the ratio described below, were dissolved in chloroform contained in an eggplant-shaped flask to obtain a uniform solution, and then the solvent was evaporated under reduced pressure to obtain a thin membrane formed on the bottom of the flask. The thin membrane was dried in vacuo, then added with an appropriate volume of 0.9% physiological saline (Hikari Pharmaceutical, No. 512) and ultrasonicated (probe type oscillator, Branson, No. 3542, 0.1 mW) for 5 minute with ice cooling to obtain a uniform liposome dispersion. Size of the particles contained in the resulting dispersion was measured by using WBC analyzer (Nihon Kohden, A-1042). The particle sizes were 85 to 110 nm.
Liposome formulation having the ratio of PC:PS:Compound d1-6=50:50:40 (nmol), and a particle sizes of 85 to 120 nm are prepared from a chloroform solution of PC (dipalmitoyl-phosphatidylcholine Funakoshi, No. 850355C), PS (dipalmitoyl-phosphatidylserine Funakoshi, No. 840037C), and Compound d1-6.

[4] = suspension administered from the caudal vein, ICR male mice

Row | SMILES | MTD [1, 4] | Introduced amount [2] | Maximum amount forming liposome [3] | MTD ([1]; mouse, in vivo)
1 | CC(C)CCC[C@@H](C)[C@H]1CC[C@H]2[C@@H]3CC=C4C[C@@H](OC(=O)CCC(=O)Oc5cc(C(F)(F)F)cc(C(F)(F)F)c5)CC[C@]4(C)[C@H]3CC[C@]12C [Compound b4-2] | 400 mg/kg | 10.6 nmol/mg protein | 20 nmol | 
2 | O=C(CCCCCCCC(F)(F)C(F)(F)C(F)(F)C(F)(F)C(F)(F)C(F)(F)F)OCC(COC(=O)CN1CCOCC1)OC(=O)CCCCCCCC(F)(F)C(F)(F)C(F)(F)C(F)(F)C(F)(F)C(F)(F)F (centres unmarked) [Compound e1-6] |  |  | 40 nmol | 400 mg/kg
3 | CC(C)CCC[C@@H](C)[C@H]1CC[C@H]2[C@@H]3CC=C4C[C@@H](OC(=O)CCCCCCCCCC(C)Oc5cc(C(F)(F)F)cc(C(F)(F)F)c5)CC[C@]4(C)[C@H]3CC[C@]12C (some centres unmarked) [Compound b1-8] | 400 mg/kg | 8.9 nmol/mg protein | 20 nmol | 
4 | CC(C)CCC[C@@H](C)[C@H]1CC[C@H]2[C@@H]3CC=C4C[C@@H](OC(=O)Oc5cc(C(F)(F)F)cc(C(F)(F)F)c5)CC[C@]4(C)[C@H]3CC[C@]12C [Compound b1-1] | 400 mg/kg | 17.5 nmol/mg protein | 40 nmol | 
